Data reported in PubChem BioAssay AID1919009 (Molecular Pharmacology Branch, DTP, NCI, 2023).

System: K24384-001-R-PDC complex spheroid growth
Experiment: Anticancer human tumor K24384-001-R-PDC patient-derived pancreatic adenocarcinoma cell line growth inhibition [AhR]
Conditions: for IC50: curve of first compound; for viability, T/C: stronger effect = lower value
Procedure, shortened: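 Agents were dosed in half-log steps down from roughly clinical Cmax, or from 10 microM where Cmax was unknown, alone and with AhR antagonists. Read-out: percent test/control growth of tumor spheroids containing HUVEC and MSC stromal cells.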

[1] = second compound 0.1 µM, first compound 0.000949 µM
[2] = second compound 0.1 µM, first compound 0.003 µM
[3] = second compound 0.1 µM, first compound 0.00949 µM
[4] = second compound 0.1 µM, first compound 0.03 µM
[5] = second compound 0.1 µM, first compound 0.0949 µM
[6] = second compound 0.1 µM, first compound 0.3 µM
[7] = second compound 0.316 µM, first compound 0.000949 µM
[8] = second compound 0.316 µM, first compound 0.003 µM
[9] = second compound 0.316 µM, first compound 0.00949 µM
[10] = second compound 0.316 µM, first compound 0.03 µM
[11] = second compound 0.316 µM, first compound 0.0949 µM
[12] = second compound 0.316 µM, first compound 0.3 µM
[13] = second compound 1 µM, first compound 0.000949 µM
[14] = second compound 1 µM, first compound 0.003 µM
[15] = second compound 1 µM, first compound 0.00949 µM
[16] = second compound 1 µM, first compound 0.03 µM
[17] = second compound 1 µM, first compound 0.0949 µM
[18] = second compound 1 µM, first compound 0.3 µM
[19] = second compound 3.16 µM, first compound 0.000949 µM
[20] = second compound 3.16 µM, first compound 0.003 µM
[21] = second compound 3.16 µM, first compound 0.00949 µM
[22] = second compound 3.16 µM, first compound 0.03 µM
[23] = second compound 3.16 µM, first compound 0.0949 µM
[24] = second compound 3.16 µM, first compound 0.3 µM
[25] = second compound 10 µM, first compound 0.000949 µM
[26] = second compound 10 µM, first compound 0.003 µM
[27] = second compound 10 µM, first compound 0.00949 µM
[28] = second compound 10 µM, first compound 0.03 µM
[29] = second compound 10 µM, first compound 0.0949 µM
[30] = second compound 10 µM, first compound 0.3 µM
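Throughout, for viability, T/C: percent of DMSO vehicle-treated spheroid viability set as 100%.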

## CC(C)CC(NC(=O)C(Cc1ccccc1)NC(=O)c1cnccn1)B(O)O (stereo not given) + Cc1ccccc1N=Nc1ccc(NC(=O)c2ccnn2C)c(C)c1
Second compound 0.1 µM
  IC50: 10.7 nM
Second compound 0.316 µM
  IC50: 9.9 nM
Second compound 1 µM
  IC50: 11.2 nM
Second compound 3.16 µM
  IC50: 9.78 nM
Second compound 10 µM
  IC50: 10.5 nM
[1]
  viability, T/C: 106%
[2]
  viability, T/C: 90%
[3]
  viability, T/C: 57.3%
[4]
  viability, T/C: 1.13%
[5]
  viability, T/C: 0.15%
[6]
  viability, T/C: 0.42%
[7]
  viability, T/C: 95.3%
[8]
  viability, T/C: 76.8%
[9]
  viability, T/C: 54%
[10]
  viability, T/C: 1.07%
[11]
  viability, T/C: 0.38%
[12]
  viability, T/C: 0.33%
[13]
  viability, T/C: 104%
[14]
  viability, T/C: 79.5%
[15]
  viability, T/C: 60.4%
[16]
  viability, T/C: 1.14%
[17]
  viability, T/C: 0.44%
[18]
  viability, T/C: 0.38%
[19]
  viability, T/C: 83.9%
[20]
  viability, T/C: 102%
[21]
  viability, T/C: 51.3%
[22]
  viability, T/C: 1.31%
[23]
  viability, T/C: 0.31%
[24]
  viability, T/C: 0.48%
[25]
  viability, T/C: 97.4%
[26]
  viability, T/C: 115%
[27]
  viability, T/C: 54.7%
[28]
  viability, T/C: 2.19%
[29]
  viability, T/C: 1.72%
[30]
  viability, T/C: 0.66%

## CCc1c2c(nc3ccc(O)cc13)-c1cc3c(c(=O)n1C2)COC(=O)[C@]3(O)CC + Cc1ccccc1N=Nc1ccc(NC(=O)c2ccnn2C)c(C)c1
Second compound 0.1 µM
  IC50: 8.69 nM
Second compound 0.316 µM
  IC50: 29.2 nM
Second compound 1 µM
  IC50: 8.68 nM
Second compound 3.16 µM
  IC50: 19.8 nM
Second compound 10 µM
  IC50: 68 nM
[1]
  viability, T/C: 74.2%
[2]
  viability, T/C: 72.8%
[3]
  viability, T/C: 48.1%
[4]
  viability, T/C: 48.9%
[5]
  viability, T/C: 49.8%
[6]
  viability, T/C: 36.7%
[7]
  viability, T/C: 96.2%
[8]
  viability, T/C: 77.7%
[9]
  viability, T/C: 58.1%
[10]
  viability, T/C: 51.6%
[11]
  viability, T/C: 41.9%
[12]
  viability, T/C: 31.4%
[13]
  viability, T/C: 77.4%
[14]
  viability, T/C: 100%
[15]
  viability, T/C: 46.7%
[16]
  viability, T/C: 45.2%
[17]
  viability, T/C: 47.6%
[18]
  viability, T/C: 30.8%
[19]
  viability, T/C: 73.3%
[20]
  viability, T/C: 62%
[21]
  viability, T/C: 55.6%
[22]
  viability, T/C: 46.1%
[23]
  viability, T/C: 41.5%
[24]
  viability, T/C: 30%
[25]
  viability, T/C: 94%
[26]
  viability, T/C: 82%
[27]
  viability, T/C: 64.3%
[28]
  viability, T/C: 65.7%
[29]
  viability, T/C: 48.6%
[30]
  viability, T/C: 29.3%

## COc1cc(Nc2ncc3c(n2)-c2ccc(Cl)cc2C(c2c(F)cccc2OC)=NC3)ccc1C(=O)O + Cc1ccccc1N=Nc1ccc(NC(=O)c2ccnn2C)c(C)c1
Second compound 0.1 µM
  IC50: > 10000 nM
Second compound 0.316 µM
  IC50: > 10000 nM
Second compound 1 µM
  IC50: > 10000 nM
Second compound 3.16 µM
  IC50: 3160 nM
Second compound 10 µM
  IC50: > 10000 nM
Second compound 0.1 µM, first compound 0.0316 µM
  viability, T/C: 87.8%
Second compound 0.1 µM, first compound 0.1 µM
  viability, T/C: 71.2%
Second compound 0.1 µM, first compound 0.316 µM
  viability, T/C: 76%
Second compound 0.1 µM, first compound 1 µM
  viability, T/C: 48.9%
Second compound 0.1 µM, first compound 3.16 µM
  viability, T/C: 49.6%
Second compound 0.1 µM, first compound 10 µM
  viability, T/C: 51.5%
Second compound 0.316 µM, first compound 0.0316 µM
  viability, T/C: 79.8%
Second compound 0.316 µM, first compound 0.1 µM
  viability, T/C: 68.1%
Second compound 0.316 µM, first compound 0.316 µM
  viability, T/C: 68.7%
Second compound 0.316 µM, first compound 1 µM
  viability, T/C: 60.6%
Second compound 0.316 µM, first compound 3.16 µM
  viability, T/C: 52.6%
Second compound 0.316 µM, first compound 10 µM
  viability, T/C: 54.1%
Second compound 1 µM, first compound 0.0316 µM
  viability, T/C: 79.5%
Second compound 1 µM, first compound 0.1 µM
  viability, T/C: 69.3%
Second compound 1 µM, first compound 0.316 µM
  viability, T/C: 60.6%
Second compound 1 µM, first compound 1 µM
  viability, T/C: 48.7%
Second compound 1 µM, first compound 3.16 µM
  viability, T/C: 52.6%
Second compound 1 µM, first compound 10 µM
  viability, T/C: 60.1%
Second compound 3.16 µM, first compound 0.0316 µM
  viability, T/C: 64.7%
Second compound 3.16 µM, first compound 0.1 µM
  viability, T/C: 64.5%
Second compound 3.16 µM, first compound 0.316 µM
  viability, T/C: 69.2%
Second compound 3.16 µM, first compound 1 µM
  viability, T/C: 49.2%
Second compound 3.16 µM, first compound 3.16 µM
  viability, T/C: 54.9%
Second compound 3.16 µM, first compound 10 µM
  viability, T/C: 57.3%
Second compound 10 µM, first compound 0.0316 µM
  viability, T/C: 90.6%
Second compound 10 µM, first compound 0.1 µM
  viability, T/C: 84.8%
Second compound 10 µM, first compound 0.316 µM
  viability, T/C: 85.5%
Second compound 10 µM, first compound 1 µM
  viability, T/C: 74.2%
Second compound 10 µM, first compound 3.16 µM
  viability, T/C: 75.4%
Second compound 10 µM, first compound 10 µM
  viability, T/C: 70.3%
